Literature values, collected in patent US20100285123A1, “Controlled Release Dosage Formulation of Duloxetine” (priority 2005, published 2010).
Structures can show the parent of a compound that is named as a salt.

Tests used:
[1] = gastric pH
[2] = patients, acute treatment of major depression

SMILES | stability in acidic environment [1] | patients who did not experience any treatment experienced related adverse event (110 of 1279 patients) | patients discontinued due to adverse events (218 of 1279 patients, major depression, long-term) | headache, patients reporting (389 of 1279 patients) | insomnia, patients reporting (400 of 1279 patients) | nausea, patients reporting (435 of 1279 patients) | patients who experienced at least one or more treatment experienced adverse event (1169 of 1279 patients) | headache reported [2] | incidence of nausea [2] | insomnia reported [2]
CNCC[C@H](Oc1cccc2ccccc12)c1cccs1 [Duloxetine hydrochloride] | unstable | 8.6% | 17.0% | 30.4% | 31.3% | 34.0% | 91.4% | – | – | –
Fc1ccc([C@@H]2CCNC[C@H]2COc2ccc3c(c2)OCO3)cc1 [Paroxetine] | – | – | – | – | – | – | – | 11.5% | 16.1% | 8.0%
